Laboratory results taken from patent US20110081315A1, “NOVEL MACROCYCLIC INHIBITORS OF HEPATITIS C VIRUS REPLICATION” (INTERMUNE, INC., priority 2009, published 2011).
Read-outs that look alike come from different tables or passages of the source.

Columns and labels:
hepatitis C replicon = hepatitis C replicon EC50 assay; type: cell-based; details: Hepatitis C virus
Source text: (§1) NS3-NS4 inhibition activity can be determined using known assay methods. For example, NS3/NS4 complexes may be formed and inhibitory concentrations of test compounds determined as described in U.S. Patent Application Publication Number 2007/0054842 paragraph numbers 1497-1509, which is incorporated herein by reference in its entirety. Similarly, hepatitis C replicon EC50 may be determined using known assay methods such as described in U.S. Patent Application Publication Number 2007/0054842 paragraph numbers 1510-1515, which is incorporated herein by reference in its entirety. Assays may be conducted at ambient temperature (23° C.) in assay buffer containing 50 mM Tris-HCl, pH 7.5, 15% glycerol, 0.6 mM Lauryldimethylamine Oxide (LDAO), 25 μM NS4A peptide, and 10 mM Dithiothreitol (DTT).

NS3/NS4 complexes = NS3/NS4 complexes (Hepatitis C virus genotype 1a, UniProt P27958); test: NS3/NS4 inhibition assay (IC50); type: biochemical; details: NS3/NS4 activity; 23° C., 25 μM NS4A peptide
NS3/NS4 complexes, sequence (P27958 1027-1657, one chain of several): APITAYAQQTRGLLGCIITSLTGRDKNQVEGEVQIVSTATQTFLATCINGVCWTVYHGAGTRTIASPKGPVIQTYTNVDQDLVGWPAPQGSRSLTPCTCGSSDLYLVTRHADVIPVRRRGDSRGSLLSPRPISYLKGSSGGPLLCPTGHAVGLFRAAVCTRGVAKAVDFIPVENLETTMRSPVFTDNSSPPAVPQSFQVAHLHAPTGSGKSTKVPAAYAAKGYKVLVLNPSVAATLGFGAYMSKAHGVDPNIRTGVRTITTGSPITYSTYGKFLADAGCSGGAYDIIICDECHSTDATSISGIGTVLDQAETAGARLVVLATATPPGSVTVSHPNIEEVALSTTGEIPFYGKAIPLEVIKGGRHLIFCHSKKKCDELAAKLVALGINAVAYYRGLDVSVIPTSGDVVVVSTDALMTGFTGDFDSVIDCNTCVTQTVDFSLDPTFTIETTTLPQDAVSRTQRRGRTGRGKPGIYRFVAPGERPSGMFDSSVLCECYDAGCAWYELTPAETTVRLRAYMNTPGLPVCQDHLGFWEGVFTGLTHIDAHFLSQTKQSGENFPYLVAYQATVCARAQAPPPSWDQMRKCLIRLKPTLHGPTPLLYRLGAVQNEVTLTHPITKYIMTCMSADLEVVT
Source text: as §1

[1] = hepatitis C replicon, read-out: EC50

| SMILES | EC50 (hepatitis C replicon; [1]) | IC50 (NS3/NS4 complexes) | EC50 (hepatitis C replicon) |
| --- | --- | --- | --- |
| CC(C)n1c(O[C@@H]2C[C@H]3C(=O)N[C@]4(C(=O)NS(=O)(=O)C5(C)CC5)C[C@H]4/C=C\CCCCC[C@H](NC(=O)OC(C)(C)C)C(=O)N3C2)nc2c(-c3nc(Cc4cccc(Cl)c4)cs3)cccc21 [Compound 1724] | 10 to 100 nM | < 10 nM |  |
| CC(C)n1c(O[C@@H]2C[C@H]3C(=O)N[C@]4(C(=O)NS(=O)(=O)N(C)C)C[C@H]4/C=C\CCCCC[C@H](NC(=O)OC(C)(C)C)C(=O)N3C2)nc2c(Cl)cccc21 [Compound 264] | < 10 nM | < 10 nM |  |
| CCOC(=O)Nc1cccc2c1nc(O[C@@H]1C[C@H]3C(=O)N[C@]4(C(=O)NS(=O)(=O)N(C)C)C[C@H]4/C=C\CCCCC[C@H](NC(=O)OC(C)(C)C)C(=O)N3C1)n2C(C)C [Compound 1427] | < 10 nM | < 10 nM |  |
| CC(C)n1c(O[C@@H]2C[C@H]3C(=O)N[C@]4(C(=O)NS(=O)(=O)C5(C)CC5)C[C@H]4/C=C\CCCCC[C@H](Nc4ccc(F)cc4)C(=O)N3C2)nc2c(-c3nc(C4CCCC4)cs3)cccc21 [Compound 1728] | > 100 nM | < 10 nM |  |
| Cn1cnc2cc(O[C@@H]3C[C@H]4C(=O)N[C@]5(C(=O)NS(=O)(=O)C6(C)CC6)C[C@H]5/C=C\CCCCC[C@H](NC(=O)OC(C)(C)C)C(=O)N4C3)ccc21 [Compound 295] | > 100 nM | < 10 nM |  |
| Cc1cccc(-c2csc(-c3cccc4c3nc(O[C@@H]3C[C@H]5C(=O)N[C@]6(C(=O)NS(=O)(=O)N(C)C)C[C@H]6/C=C\CCCCC[C@H](NC(=O)OC(C)(C)C)C(=O)N5C3)n4C(C)C)n2)c1 [Compound 1750] | 10 to 100 nM | < 10 nM |  |
| CC(C)n1c(O[C@@H]2C[C@H]3C(=O)N[C@]4(C(=O)NS(=O)(=O)N(C)C)C[C@H]4/C=C\CCCCC[C@H](NC(=O)OC(C)(C)C)C(=O)N3C2)nc2c(C(N)=O)cccc21 [Compound 277] | < 10 nM | < 10 nM |  |
| CC(C)n1cnc2cnc(O[C@@H]3C[C@H]4C(=O)N[C@]5(C(=O)NS(=O)(=O)C6CC6)C[C@H]5/C=C\CCCCC[C@H](NC(=O)OC(C)(C)C)C(=O)N4C3)nc21 [Compound 505] | > 100 nM | < 10 nM |  |
| COc1ccc2c(O[C@@H]3C[C@H]4C(=O)N[C@]5(C(=O)NS(=O)(=O)C6(C)CC6)C[C@H]5/C=C\CCCCC[C@H](Nc5cccc(C(=O)N6CCN(CCN(C)C)CC6)c5)C(=O)N4C3)cc(-c3nc(C(C)C)cs3)nc2c1C [Compound 111] | < 10 nM | < 10 nM |  |
| CCn1c(O[C@@H]2C[C@H]3C(=O)N[C@]4(C(=O)NS(=O)(=O)N(C)C)C[C@H]4/C=C\CCCCC[C@H](NC(=O)OC(C)(C)C)C(=O)N3C2)nc2c(-c3nc(-c4ccccc4)cs3)cccc21 [Compound 1431] | 10 to 100 nM | < 10 nM |  |
| CC(C)n1c(O[C@@H]2C[C@H]3C(=O)N[C@]4(C(=O)NS(=O)(=O)N(C)C)C[C@H]4/C=C\CCCCC[C@H](NC(=O)OC(C)(C)C)C(=O)N3C2)nc2ncccc21 [Compound 1780] | 10 to 100 nM | < 10 nM |  |
| CC(C)n1c(O[C@@H]2C[C@H]3C(=O)N[C@]4(C(=O)NS(=O)(=O)N(C)C)C[C@H]4/C=C\CCCCC[C@H](NC(=O)OC(C)(C)C)C(=O)N3C2)nc2c(-c3nc(-c4cccnc4)cs3)cccc21 [Compound 1736] | < 10 nM | < 10 nM |  |
| COc1ccc2c(O[C@@H]3C[C@H]4C(=O)N[C@]5(C(=O)NS(=O)(=O)C6(C)CC6)C[C@H]5/C=C\CCCCC[C@H](Nc5cccc(N)c5)C(=O)N4C3)cc(-c3nc(C(C)C)cs3)nc2c1C [Compound 102] |  | < 10 nM | < 10 nM |
| CC(C)n1c(O[C@@H]2C[C@H]3C(=O)N[C@]4(C(=O)NS(=O)(=O)C5(C)CC5)C[C@H]4/C=C\CCCCC[C@H](Nc4ccccc4)C(=O)N3C2)nc2c(-c3ccc(F)c(F)c3)cccc21 [Compound 243] | > 100 nM | < 10 nM |  |
| CC(C)n1c(O[C@@H]2C[C@H]3C(=O)N[C@]4(C(=O)NS(=O)(=O)N(C)C)C[C@H]4/C=C\CCCCC[C@H](NC(=O)OC(C)(C)C)C(=O)N3C2)nc2c(-c3nc(-c4ccncc4)cs3)cccc21 [Compound 1737] | < 10 nM | < 10 nM |  |
| CCCN1CCN(C(=O)c2cccc(N[C@H]3CCCCC/C=C\[C@@H]4C[C@@]4(C(=O)NS(=O)(=O)C4(C)CC4)NC(=O)[C@@H]4C[C@@H](Oc5cc(-c6nc(C(C)C)cs6)nc6c(C)c(OC)ccc56)CN4C3=O)c2)CC1 [Compound 113] | < 10 nM | < 10 nM |  |
| CC(C)n1c(O[C@@H]2C[C@H]3C(=O)N[C@]4(C(=O)NS(=O)(=O)C5(C)CC5)C[C@H]4/C=C\CCCCC[C@H](NC(=O)OC(C)(C)C)C(=O)N3C2)nc2c(-c3csc(-c4cc(F)cc(F)c4)n3)cccc21 [Compound 1703] | 10 to 100 nM | < 10 nM |  |
| COc1ccc2c(O[C@@H]3C[C@H]4C(=O)N[C@]5(C(=O)NS(=O)(=O)C6(C)CC6)C[C@H]5/C=C\CCCCC[C@H](Nc5cccc(C(=O)N6C[C@@H](C)O[C@@H](C)C6)c5)C(=O)N4C3)cc(-c3nc(C(C)C)cs3)nc2c1C [Compound 120] | < 10 nM | < 10 nM |  |

| SMILES | EC50 (hepatitis C replicon; [1]) | IC50 (NS3/NS4 complexes) | EC50 (hepatitis C replicon) |
| --- | --- | --- | --- |
| CC(C)n1c(O[C@@H]2C[C@H]3C(=O)N[C@]4(C(=O)NS(=O)(=O)N(C)C)C[C@H]4/C=C\CCCCC[C@H](NC(=O)OC(C)(C)C)C(=O)N3C2)nc2c(-c3nc(-c4ccccc4)cs3)cccc21 [Compound 233] | 10 to 100 nM | < 10 nM |  |
| CC(C)n1c(O[C@@H]2C[C@H]3C(=O)N[C@]4(C(=O)NS(=O)(=O)C5(C)CC5)C[C@H]4/C=C\CCCCC[C@H](Nc4ccccc4)C(=O)N3C2)nc2c(C(N)=O)cccc21 [Compound 268] | 10 to 100 nM | < 10 nM |  |
| CC(C)n1c(O[C@@H]2C[C@H]3C(=O)N[C@]4(C(=O)NS(=O)(=O)C5(C)CC5)C[C@H]4/C=C\CCCCC[C@H](Nc4ccccc4)C(=O)N3C2)nc2c(C(=O)NCc3ccccc3)cccc21 [Compound 274] | 10 to 100 nM | < 10 nM |  |
| COc1ccc2c(O[C@@H]3C[C@H]4C(=O)N[C@]5(C(=O)NS(=O)(=O)C6(C)CC6)C[C@H]5/C=C\CCCCC[C@H](Nc5ccccn5)C(=O)N4C3)cc(-c3nc(C(C)C)cs3)nc2c1C [Compound 1002] | < 10 nM | < 10 nM |  |
| CC(C)n1c(O[C@@H]2C[C@H]3C(=O)N[C@]4(C(=O)NS(=O)(=O)C5(C)CC5)C[C@H]4/C=C\CCCCC[C@H](Nc4ccccc4)C(=O)N3C2)nc2c(NC(N)=O)cccc21 [Compound 1410] | 10 to 100 nM | < 10 nM |  |
| CC(C)NC(=O)c1cccc2c1nc(O[C@@H]1C[C@H]3C(=O)N[C@]4(C(=O)NS(=O)(=O)N(C)C)C[C@H]4/C=C\CCCCC[C@H](NC(=O)OC(C)(C)C)C(=O)N3C1)n2C(C)C [Compound 281] | < 10 nM | < 10 nM |  |
| CCn1c(O[C@@H]2C[C@H]3C(=O)N[C@]4(C(=O)NS(=O)(=O)N(C)C)C[C@H]4/C=C\CCCCC[C@H](NC(=O)OC(C)(C)C)C(=O)N3C2)nc2c(-c3nc(C(C)C)c(C)o3)cccc21 [Compound 1204] | < 10 nM | < 10 nM |  |
| CC(C)n1c(O[C@@H]2C[C@H]3C(=O)N[C@]4(C(=O)NS(=O)(=O)N(C)C)C[C@H]4/C=C\CCCCC[C@H](NC(=O)OC(C)(C)C)C(=O)N3C2)nc2c(-c3cnc(N4CCOCC4)cn3)cccc21 [Compound 1744] | < 10 nM | < 10 nM |  |
| CC(C)n1c(O[C@@H]2C[C@H]3C(=O)N[C@]4(C(=O)NS(=O)(=O)C5(C)CC5)C[C@H]4/C=C\CCCCC[C@H](NC(=O)OC4COC4)C(=O)N3C2)nc2c(-c3nc(C4CCCC4)cs3)cccc21 [Compound 1414] | < 10 nM | < 10 nM |  |
| CC(C)n1c(O[C@@H]2C[C@H]3C(=O)N[C@]4(C(=O)NS(=O)(=O)C5(C)CC5)C[C@H]4/C=C\CCCCC[C@H](Nc4ccccc4)C(=O)N3C2)nc2c(C(=O)N(C)C)cccc21 [Compound 270] | > 100 nM | < 10 nM |  |
| CCc1cccc2c1nc(O[C@@H]1C[C@H]3C(=O)N[C@]4(C(=O)NS(=O)(=O)N(C)C)C[C@H]4/C=C\CCCCC[C@H](NC(=O)OC(C)(C)C)C(=O)N3C1)n2C(C)C [Compound 266] | < 10 nM | < 10 nM |  |
| CNC(=O)Nc1cccc2c1nc(O[C@@H]1C[C@H]3C(=O)N[C@]4(C(=O)NS(=O)(=O)C5(C)CC5)C[C@H]4/C=C\CCCCC[C@H](Nc4ccccc4)C(=O)N3C1)n2C(C)C [Compound 1406] | > 100 nM | < 10 nM |  |
| CCCc1nc(-c2cccc3c2nc(O[C@@H]2C[C@H]4C(=O)N[C@]5(C(=O)NS(=O)(=O)C6(C)CC6)C[C@H]5/C=C\CCCCC[C@H](NC(=O)OC(C)(C)C)C(=O)N4C2)n3C(C)C)sc1C [Compound 1210] | < 10 nM | < 10 nM |  |
| CC(C)n1c(O[C@@H]2C[C@H]3C(=O)N[C@]4(C(=O)NS(=O)(=O)N(C)C)C[C@H]4/C=C\CCCCC[C@H](NC(=O)OC(C)(C)C)C(=O)N3C2)nc2c(-c3nc(C4CCCC4)cs3)cccc21 [Compound 293] | 10 to 100 nM | < 10 nM |  |
| Cc1oc(-c2c(F)ccc3c2nc(O[C@@H]2C[C@H]4C(=O)N[C@]5(C(=O)NS(=O)(=O)N(C)C)C[C@H]5/C=C\CCCCC[C@H](NC(=O)OC(C)(C)C)C(=O)N4C2)n3C(C)C)nc1C(C)C [Compound 1220] | < 10 nM | < 10 nM |  |
| CC1(S(=O)(=O)NC(=O)[C@@]23C[C@H]2/C=C\CCCCC[C@H](Nc2ccccc2)C(=O)N2C[C@H](n4nnc(-c5ccccc5)n4)C[C@H]2C(=O)N3)CC1 [Compound 802] | > 100 nM | < 10 nM |  |
| Cc1ccccc1-c1cccc2c1nc(O[C@@H]1C[C@H]3C(=O)N[C@]4(C(=O)NS(=O)(=O)C5(C)CC5)C[C@H]4/C=C\CCCCC[C@H](Nc4ccccc4)C(=O)N3C1)n2C(C)C [Compound 250] | > 100 nM | < 10 nM |  |
